Experimental data: patent US11235020B2, “Methods and compositions for inhibiting glyoxalase 1 (GLO1)” (priority 2013, dated 2022)
Like-named read-outs stand apart in the source and are kept apart here.

Columns and labels:
[1] = HPLC measurement of MG concentration in whole brain after i.p. MG; type: in vivo, mouse; conditions: for concentration at 10 min: intraperitoneal, read-out: Estimated MG concentration; for concentration at 10 min / MG concentration (nmol/g tissue): brain; for MG concentration (nmol/g tissue): 10 min post-injection
Procedure: MG concentration was measured by HPLC as previously described with modifications (Dhar 2009). Tissue was homogenized in 50 mM sodium phosphate buffer (pH 6.6) and 0.8N perchloric acid. It was then incubated on ice for 10 minutes and centrifuged. The supernatant was filtered, and MG was derivatized with 10 mM o-phenylenediamine to form 2-methylquinoxaline (2-MQ). 5-methylquinoxaline (5-MQ, 15 μM) was spiked into each sample as an internal standard. 2-MQ was quantified using an HP 1100 HPLC system (Agilent) with a Nova-Pak C18 column (Waters Corporation). Column effluent was monitored at 315 nm. 2-MQ concentration was determined by comparison to 2-MQ standards of known mass. Quantification of 2-MQ was corrected for losses by comparison with 5-MQ. MG concentration was calculated as 2-MQ/tissue weight. Treatment: Unless otherwise noted, crude MG was used for all behavioral experiments. MG was obtained from Sigma-Aldrich, filter-sterilized (0.22 μm filter, Millipore), diluted in vehicle (0.9% NaCl), and adjusted to pH 7.4. Mice were injected i.p. with 10 ml/kg MG or vehicle. HPLC: Ten minutes post-injection, mice were sacrificed, and brains were rapidly dissected and flash-frozen on dry ice. MG concentration was measured as described above.

[2] = tested on: mice; assay: Hypothermia (rectal temperature); type: in vivo, mouse; conditions: 300 mg/kg i.p., B6 mice
Procedure: Hypothermia: Thirty minutes post-injection, rectal temperature was measured with a digital thermometer.

[3] = tested on: GABAA receptors in cerebellar granule neurons; assay: Whole-cell patch clamp in cerebellar granule neurons (CGN); type: cell-based, rat
Procedure: Reagents: All reagents were obtained from Sigma-Aldrich.
Culture of rat CGN: CGN were cultured from mixed-sex Sprague-Dawley rats. Tissue was dissected from 6- to 8-day-old rats. Cells were suspended in minimal essential medium supplemented with 10% fetal calf serum, 26 mM glucose, 19 mM KCl, 2 mM 1-glutamine, and penicillin/streptomycin (50 IU/ml and 50 μg/ml). Cells were seeded on poly-1-lysine-coated coverslips and incubated in a humidified atmosphere containing 5% CO2 at 37° C. After 48 hours, the culture medium was replaced with minimal essential medium supplemented with 10% horse serum, 26 mM glucose, 19 mM KCl, 2 mM 1-glutamine, penicillin/streptomycin (50 IU/ml and 50 μg/ml), and 80 μM 1-fluorodeoxyuridine. Culture medium was exchanged every three days. All recordings were made from cells between days 6 to 9 in culture.
Filter and sampling frequencies were 5 and 25 kHz, respectively, for voltage-clamp experiments and 1 and 10 kHz, respectively, for current-clamp recording. Experiments were performed at 32° C. using a feedback-controlled heated perfusion system (Warner Instruments). Vm, ligand-gated currents, and potassium channel currents were studied in a bath solution containing 1 mM CaCl2, 1 mM MgCl2, 4 mM KCl, 140 mM NaCl, 5 mM glucose, and 10 mM HEPES (pH 7.4). […] Electrodes were coated with Sigmacote (Sigma) prior to use.
Ligand-gated currents: Ligand-gated currents were studied in voltage-clamp mode by application of reagents to cells held at −50 mV.

[4] = tested on: picrotoxin-induced seizures; assay: Picrotoxin-induced seizures assessed by EEG; type: in vivo, mouse; conditions: MG 200 mg/kg pre-treatment, picrotoxin 7 mg/kg
Procedure: FIGS. 37A-37D: Exogenous MG attenuates picrotoxin-induced seizures as assessed by EEG. B6 mice were pre-treated with vehicle or MG (200 mg/kg) prior to seizure induction with picrotoxin (7 mg/kg). […] P=0.036 by Mann-Whitney U test. […] P=0.028 by Mann-Whitney U test. […] P=0.036 by Mann-Whitney U test. […] P=0.014 by Mann-Whitney U test. […] P=0.028 by Mann-Whitney U test. FIG. 37D, Representative EEG recordings of a mouse during baseline period (prior to any injections), after acute saline and picrotoxin (7 mg/kg) injections, or after acute MG (200 mg/kg) and picrotoxin (7 mg/kg) injections. […] Seizures are associated with high muscle activity, as indicated by the electromyography (EMG) trace. […] EEG traces correspond to four differential recordings from each of four subdural electrodes (EEG1 and EEG2 (right cortical hemisphere), EEG3 and EEG4 (left cortical hemisphere)). EMG activity was recorded using two fine wires placed into the neck muscle. Calibration mark: 500 μV/mm and 1 second. Data are mean±SEM. n=4 vehicle, 5 MG (200 mg/kg). *P<0.05 versus vehicle-treated group as determined by Mann-Whitney U tests.
In order to validate these behavioral data, the inventors assessed seizure activity by EEG analysis of mice treated with 7 mg/kg picrotoxin. […] Thus, MG attenuates seizures induced by GABAA receptor blockade at both the behavioral and EEG level.

[5] = tested on: GABAA receptors in macropatches excised from CGN; assay: Macropatch recording from CGN; type: cell-based, rat
Procedure: Macropatch recording: Macropatch recording was performed with 1.5-2 MΩ electrodes filled with bath solution. The inside of excised patches was perfused with electrode solution containing the indicated reagents. SR was added to the electrode where indicated.

[6] = tested on: depression-like behavior in mice; assay: Tail suspension test (TST); type: in vivo, mouse; conditions: MG 50 mg/kg i.p., acute, 10 min before test, B6 mice
Procedure: Mice were suspended by their tails using adhesive tape attached to a bar elevated approximately 46 cm above a table. The apparatus was illuminated to approximately 1,000 lux. Mice were tested individually, and time spent immobile was scored manually for six minutes. For MG studies, mice were treated with vehicle (0.9% saline) or crude MG (Sigma-Aldrich, 50 mg/kg) by i.p. injection ten minutes before the test. Behavior was scored for five minutes.

[7] = tested on: sodium currents; assay: Voltage-gated sodium currents in CGN; type: cell-based, rat; conditions: 10 μM MG
Procedure: Sodium currents: Sodium currents were studied as previously described (Plant 2006) using a bath solution containing 130 mM NaCl, 5 mM CsCl, 2 mM CaCl2, 1.2 mM MgCl2, 5 mM glucose, and 10 mM HEPES adjusted to pH 7.4 with NaOH. 500 nM tetrodotoxin (Sigma) was included in the bath […]. The electrode solution contained 60 mM CsCl, 80 mM CsF, 10 mM EGTA, 1 mM CaCl2, 1 mM MgCl2, 5 mM Na2ATP, and 10 mM HEPES adjusted to pH 7.4 with CsOH. All voltage-gated currents were studied following a P/5 leak subtraction protocol, and voltage-clamp errors were minimized with 80% series resistance compensation.

## CC(=O)C=O [MG, methylglyoxal]
[1]; B6, mouse, MG 50 mg/kg i.p. (anxiolytic dose)
  concentration at 10 min: 5.94 µM
[1]; B6, mouse, MG 100 mg/kg i.p.
  concentration at 10 min: 6.54 µM
[1]; B6, mouse, MG 300 mg/kg i.p.
  concentration at 10 min: 8.26 µM
[1]; MG 50 mg/kg
  expected increase of the concentration of MG in the brain: approximately 16%
[1]; MG 50 mg/kg i.p.
  MG concentration (nmol/g tissue): 5.66 ± 0.36 nmol/g tissue
[1]; MG 100 mg/kg i.p.
  MG concentration (nmol/g tissue): 6.23 ± 0.26 nmol/g tissue
[1]; MG 200 mg/kg
  expected increase of the concentration of MG in the brain: ~43%
[1]; MG 300 mg/kg i.p.
  MG concentration (nmol/g tissue): 7.87 ± 0.56 nmol/g tissue
[1]; mouse, MG 50 mg/kg i.p. (anxiolytic dose)
  concentration at 10 min: ~6 µM
[2]
  hypothermia: hypothermia
[3]; read-out: EC50 of evoked inward currents in CGN, whole-cell voltage clamp
  EC50: 12 ± 0.7 µM
[3]; whole-cell current clamp, read-out: EC50 of depolarization of CGN
  EC50: 10.5 ± 0.5 µM
[4]
  duration of EEG-confirmed seizures: reduced seizure duration
  latency to first EEG-confirmed seizure: delayed seizure onset
  number of EEG-confirmed seizures: reduced the number of seizures
[5]; 10 μM MG
  latency of inward current after application to the intracellular face: approximately 40 seconds
[5]; 10 μM, SR 10 μM at the extracellular face (pipette)
  current on application to the intracellular face of macropatches: elicited an inward current
[6]
  duration of immobility in the TST: did not affect the duration of immobility
[7]
  effect on major sodium currents: did not affect the major sodium currents
